Counter-ions that a name gives are not always drawn. Like-named read-outs stand apart in the source and are kept apart here.
Assay: Phase 1a study: pharmacokinetics after oral BID dosing in subjects with advanced solid tumors
Type: in vivo, human
Settings: for Tmax / Cmax / half-life / AUC(0-t) / Vd/F / AUC(0-inf) / AUC: human, in vivo; for Vd/F: read-out: Vz/F; for AUC: read-out: AUC0-τ
Procedure: This example describes a first in human, Phase 1a, multi-center, open-label study to establish the maximum tolerated dose (MTD) and evaluate the safety and tolerability of oral dosing of Form A of the hemi-fumarate salt of the compound of formula (I) (Example 11) in a dose-escalating fashion. Form A of the hemi-fumarate salt was orally administered BID every day with food or within 30 minutes of completing a meal, starting at 25 mg, with doses escalating to 50, 100, 200, 400, 600, and 900 mg BID as safety allows for each 3-week treatment cycle.
Up to 36 qualified subjects at 3 to 5 US sites, who have specific tumor types of renal cell carcinoma (RCC), gastric cancer (GC), metastatic breast cancer (MBC), small cell lung cancer (SCLC), and other solid tumors (e.g., non-small cell lung cancer, colorectal cancer, carcinoma of unknown primary) with the exception of rapidly progressing neoplasms (e.g., pancreatic cancer, glioblastoma, hepatocellular carcinoma) received Form A of the hemi-fumarate salt. Every effort was made to ensure approximately 50% of all subjects enrolled were subjects with RCC and GC. The starting dose level was 25 mg twice daily (BID), escalating to 50, 100, and 200 mg BID as safety allows, following the Bayesian Optimal Interval (BOIN) design. The safety monitoring committee (SMC) evaluated the dose-limiting toxicities (DLTs) and cumulative safety and PK data at the end of each cohort. Based on the SMC recommendations after a comprehensive review of PK and safety data for 200 mg BID dose, higher dose levels were evaluated, starting with 400 mg BID. The dose escalated to 600 mg and then 900 mg following the BOIN design starting with 1 subject at each escalated dose, until the MTD was reached or the sponsor or SMC declares the dose most appropriate for clinical development. This Phase 1a will be expanded into a Phase 1b/2a study through a protocol amendment and will then assess the dose and tumor type(s) selected in Phase 1a as the most appropriate for further clinical development. Subjects were dosed until unacceptable toxicity, disease progression per immune-related Response Evaluation Criteria in Solid Tumors (iRECIST), subject withdrawal, any other administrative reasons, or after 2 years of treatment, whichever occurs first. Efficacy was assessed via Response Evaluation Criteria in Solid Tumors 1.1 (RECIST 1.1); computed tomography (CT) scans were conducted every 6 weeks. Safety, including occurrence of dose-limiting toxicities (DLTs), pharmacokinetics (PK), and biomarker parameters were also assessed.
Form A of the hemi-fumarate salt was orally administered BID with food or within 30 minutes of completing a meal, starting at 25 mg, with doses escalating to 50, 100, 200, 400, 600 and 900 mg BID as safety allowed. Up to 24 subjects were enrolled to ensure 12 subjects completed the study at the estimated MTD of Form A of the hemi-fumarate salt. Dosing occurred in 3-week cycles. Subjects spent Cycle 1/Day 1 (C1D1) in the clinic followed by an overnight stay for safety monitoring and PK sampling. Subjects were hospitalized for administration of first 3 doses: CID1 am and pm doses, and Cycle 1/Day 2 (C1D2) am dose; on Days 8, 15, and 21 the am dose was taken in the clinic after the planned PK samples. All other doses were self administered at home.
Results of Cohorts 1 to 6 the study are detailed in Tables 47-50 below.

[1] = po, 300 mg, 300 mg single oral dose, Cycle 1 Day 1, geometric mean, N = 4
[2] = po, 300 mg, 300 mg twice daily oral, Cycle 1 Day 21, point estimate, N = 1
[3] = po, 400 mg, 400 mg single oral dose, Cycle 1 Day 1, geometric mean, N = 3
[4] = po, 600 mg, 600 mg single oral dose, Cycle 1 Day 1, point estimate, N = 1
[5] = po, 600 mg, 600 mg twice daily oral, Cycle 1 Day 21, point estimate, N = 1

## Cc1cc(NC(=O)[C@H](O)c2cc(F)cc(F)c2)ccc1-c1cnc(N)c(C(=O)NC(C)C)c1 [Form A of the hemi-fumarate salt, (R)-2-amino-5-(4-(2-(3,5-difluorophenyl)-2-hydroxyacetamido)-2-methylphenyl)-N-isopropylnicotinamide]
po, 200 mg, 200 mg twice daily oral, Cycle 1 Day 21, median, N = 4
  Tmax: 5 h
[1]
  Cmax: 1140 ng/mL
  Vd/F: 619 L
po, 300 mg, 300 mg single oral dose, Cycle 1 Day 1, geometric mean, N = 4, interpret with caution, terminal elimination phase not well captured, read-out: t1/2 (converted)
  half-life: 6.88 h
po, 300 mg, 300 mg single oral dose, Cycle 1 Day 1, geometric mean, N = 4, read-out: AUC0-12
  AUC(0-t): 8610 ng·h/mL
po, 300 mg, 300 mg single oral dose, Cycle 1 Day 1, geometric mean, N = 4, read-out: AUC0-last
  AUC(0-t): 8610 ng·h/mL
po, 300 mg, 300 mg single oral dose, Cycle 1 Day 1, median, N = 4
  Tmax: 7 h
[2]
  Cmax: 3030 ng/mL
  Tmax: 8 h
po, 300 mg, 300 mg twice daily oral, Cycle 1 Day 21, point estimate, N = 1, read-out: AUC0-last
  AUC(0-t): 28400 ng·h/mL
[3]
  Cmax: 649 ng/mL
  Vd/F: 240 L
po, 400 mg, 400 mg single oral dose, Cycle 1 Day 1, geometric mean, N = 3, interpret with caution, terminal elimination phase not well captured, read-out: t1/2 (converted)
  half-life: 6.79 h
po, 400 mg, 400 mg single oral dose, Cycle 1 Day 1, geometric mean, N = 3, read-out: AUC0-12
  AUC(0-t): 3830 ng·h/mL
po, 400 mg, 400 mg single oral dose, Cycle 1 Day 1, geometric mean, N = 3, read-out: AUC0-last
  AUC(0-t): 3830 ng·h/mL
po, 400 mg, 400 mg single oral dose, Cycle 1 Day 1, median, N = 3
  Tmax: 2 h
po, 400 mg, 400 mg twice daily oral, Cycle 1 Day 21, N = 2, interpret with caution, terminal elimination phase not well captured, read-out: t1/2 (converted)
  half-life: 10.8 h
po, 400 mg, 400 mg twice daily oral, Cycle 1 Day 21, N = 2
  Vd/F: 122 L
po, 400 mg, 400 mg twice daily oral, Cycle 1 Day 21, geometric mean, N = 2
  Cmax: 3680 ng/mL
po, 400 mg, 400 mg twice daily oral, Cycle 1 Day 21, geometric mean, N = 2, read-out: AUC0-last
  AUC(0-t): 30800 ng·h/mL
po, 400 mg, 400 mg twice daily oral, Cycle 1 Day 21, geometric mean, N = 2, read-out: t1/2, eff (converted)
  half-life: 38.5 h
po, 400 mg, 400 mg twice daily oral, Cycle 1 Day 21, median, N = 2
  Tmax: 2.5 h
[4]
  Cmax: 1460 ng/mL
  Tmax: 2 h
po, 600 mg, 600 mg single oral dose, Cycle 1 Day 1, point estimate, N = 1, read-out: AUC0-12
  AUC(0-t): 11600 ng·h/mL
po, 600 mg, 600 mg single oral dose, Cycle 1 Day 1, point estimate, N = 1, read-out: AUC0-last
  AUC(0-t): 11600 ng·h/mL
[5]
  Cmax: 5990 ng/mL
  Tmax: 12 h
po, 600 mg, 600 mg twice daily oral, Cycle 1 Day 21, point estimate, N = 1, read-out: AUC0-last
  AUC(0-t): 60800 ng·h/mL
po, 600 mg, 600 mg twice daily oral, Cycle 1 Day 21, point estimate, N = 1, read-out: t1/2, eff (converted)
  half-life: 39.1 h
25 mg single oral dose, Cycle 1 Day 1, geometric mean, N = 3
  AUC(0-inf): 2200 ng·h/mL
25 mg twice daily oral, Cycle 1 Day 21, geometric mean, N = 3
  AUC: 4110 ng·h/mL
50 mg single oral dose, Cycle 1 Day 1, geometric mean, N = 3
  AUC(0-inf): 5650 ng·h/mL
50 mg twice daily oral, Cycle 1 Day 21, geometric mean, N = 3
  AUC: 9070 ng·h/mL
100 mg twice daily oral, Cycle 1 Day 21, geometric mean, N = 3
  AUC: 11700 ng·h/mL
200 mg single oral dose, Cycle 1 Day 1, geometric mean, N = 5
  AUC(0-inf): 18000 ng·h/mL
200 mg twice daily oral, Cycle 1 Day 21, geometric mean, N = 4
  AUC: 27200 ng·h/mL
300 mg single oral dose, Cycle 1 Day 1, geometric mean, N = 4
  AUC(0-inf): 4810 ng·h/mL
300 mg twice daily oral, Cycle 1 Day 21, point estimate, N = 1
  AUC: 28400 ng·h/mL
300 mg twice daily oral, Cycle 1 Day 21, point estimate, N = 1, read-out: t1/2, eff (converted)
  half-life: 19.4 h
400 mg single oral dose, Cycle 1 Day 1, geometric mean, N = 3
  AUC(0-inf): 16300 ng·h/mL
400 mg twice daily oral, Cycle 1 Day 21, geometric mean, N = 2
  AUC: 51200 ng·h/mL
600 mg twice daily oral, Cycle 1 Day 21, point estimate, N = 1
  AUC: 60800 ng·h/mL
Oral BID with food, 25 mg to 600 mg dose range, subjects with advanced solid tumors
  Exposure versus dose: increased roughly proportional to the increase in dose
Oral BID, based on similar trough concentrations on Cycle 1, Days 8, 15 and 21
  Time to steady-state: achieved by Cycle 1, Day 8
